What was measured:
[1] = biological target: T1, ABL2 (Homo sapiens, UniProt P42684); test: ABL2 (DKIN) binding assay
T1 construct: made in house; host or cells: T7 bacteriophage display
Description: (§1) Methods for measuring binding affinities for interactions between small molecules and kinases including FLT3, c-KIT, ABL(T334I) [a.k.a. ABL(T315I)], VEGFR-2 (a.k.a. KDR), and EGFR are described in detail in U.S. application Ser. No. 10/873,835, which is incorporated by reference herein in its entirety. The components of the assays include human kinases expressed as fusions to T7 bacteriophage particles and immobilized ligands that bind to the ATP site of the kinases. […] If the test compound binds the kinase it competes with the immobilized ligand and prevents binding to the solid support. […] The results are read out by quantitating the amount of fusion protein bound to the solid support, which is accomplished by either traditional phage plaque assays or by quantitative PCR (qPCR) using the phage genome as a template. […] The concentration of test molecule that reduces the number of phage bound to the solid support by 50% is equal to the Kd for the interaction between the kinase and the test molecule. Typically, data are collected for twelve concentrations of test compound and, the resultant binding curve is fit to a non-cooperative binding isotherm to calculate Kd.
(§2) Described in the exemplary assays below is data from binding with varying kinases. […] The term “ND” represents non-determined values.

[2] = biological target: T2, TNIK (Homo sapiens, UniProt Q9UKE5); test: TNIK (DKIN) Binding Assay
T2 construct: made in house; host or cells: T7 bacteriophage display
T2 sequence (Q9UKE5 whole entry): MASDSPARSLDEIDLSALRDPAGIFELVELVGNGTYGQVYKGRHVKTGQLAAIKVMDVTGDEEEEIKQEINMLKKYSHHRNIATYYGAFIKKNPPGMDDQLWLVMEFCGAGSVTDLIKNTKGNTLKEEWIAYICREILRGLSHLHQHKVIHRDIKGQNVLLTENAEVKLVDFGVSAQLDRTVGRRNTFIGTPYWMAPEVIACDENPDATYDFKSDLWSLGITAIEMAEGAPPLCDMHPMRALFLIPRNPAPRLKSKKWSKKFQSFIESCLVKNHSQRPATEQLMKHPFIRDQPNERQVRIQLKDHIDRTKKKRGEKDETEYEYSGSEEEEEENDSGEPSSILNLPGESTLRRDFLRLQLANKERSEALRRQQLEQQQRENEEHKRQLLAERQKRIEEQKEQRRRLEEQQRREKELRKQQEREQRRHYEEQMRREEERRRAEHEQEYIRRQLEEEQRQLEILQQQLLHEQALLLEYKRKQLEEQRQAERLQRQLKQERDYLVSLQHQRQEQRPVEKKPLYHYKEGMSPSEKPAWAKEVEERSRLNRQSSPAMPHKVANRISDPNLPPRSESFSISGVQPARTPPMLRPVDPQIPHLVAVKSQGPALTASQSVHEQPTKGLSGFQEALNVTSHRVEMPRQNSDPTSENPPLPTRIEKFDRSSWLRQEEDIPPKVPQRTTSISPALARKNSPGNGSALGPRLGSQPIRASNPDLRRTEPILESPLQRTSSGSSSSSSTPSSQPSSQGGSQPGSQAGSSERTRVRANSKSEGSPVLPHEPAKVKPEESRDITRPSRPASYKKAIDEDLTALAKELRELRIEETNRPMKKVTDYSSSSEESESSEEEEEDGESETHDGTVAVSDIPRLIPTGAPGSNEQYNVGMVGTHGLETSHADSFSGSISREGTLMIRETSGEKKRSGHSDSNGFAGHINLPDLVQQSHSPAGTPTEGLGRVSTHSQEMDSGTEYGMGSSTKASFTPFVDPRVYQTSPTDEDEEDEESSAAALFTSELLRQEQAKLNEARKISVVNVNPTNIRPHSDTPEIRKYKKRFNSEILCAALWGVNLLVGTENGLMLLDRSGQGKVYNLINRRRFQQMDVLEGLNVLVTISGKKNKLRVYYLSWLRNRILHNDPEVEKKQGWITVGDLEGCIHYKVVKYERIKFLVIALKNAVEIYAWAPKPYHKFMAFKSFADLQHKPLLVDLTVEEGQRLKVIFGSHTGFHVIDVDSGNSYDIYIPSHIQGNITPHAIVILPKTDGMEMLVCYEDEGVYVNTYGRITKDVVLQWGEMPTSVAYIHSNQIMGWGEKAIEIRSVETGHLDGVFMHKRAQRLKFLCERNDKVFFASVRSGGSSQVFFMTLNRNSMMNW
Description: as §1, §2

[3] = biological target: T3, PLK 4 (Homo sapiens, UniProt O00444); test: PLK 4 (SKIN) Binding Assay
T3 construct: made in house; host or cells: T7 bacteriophage display
T3 sequence (O00444 1-970): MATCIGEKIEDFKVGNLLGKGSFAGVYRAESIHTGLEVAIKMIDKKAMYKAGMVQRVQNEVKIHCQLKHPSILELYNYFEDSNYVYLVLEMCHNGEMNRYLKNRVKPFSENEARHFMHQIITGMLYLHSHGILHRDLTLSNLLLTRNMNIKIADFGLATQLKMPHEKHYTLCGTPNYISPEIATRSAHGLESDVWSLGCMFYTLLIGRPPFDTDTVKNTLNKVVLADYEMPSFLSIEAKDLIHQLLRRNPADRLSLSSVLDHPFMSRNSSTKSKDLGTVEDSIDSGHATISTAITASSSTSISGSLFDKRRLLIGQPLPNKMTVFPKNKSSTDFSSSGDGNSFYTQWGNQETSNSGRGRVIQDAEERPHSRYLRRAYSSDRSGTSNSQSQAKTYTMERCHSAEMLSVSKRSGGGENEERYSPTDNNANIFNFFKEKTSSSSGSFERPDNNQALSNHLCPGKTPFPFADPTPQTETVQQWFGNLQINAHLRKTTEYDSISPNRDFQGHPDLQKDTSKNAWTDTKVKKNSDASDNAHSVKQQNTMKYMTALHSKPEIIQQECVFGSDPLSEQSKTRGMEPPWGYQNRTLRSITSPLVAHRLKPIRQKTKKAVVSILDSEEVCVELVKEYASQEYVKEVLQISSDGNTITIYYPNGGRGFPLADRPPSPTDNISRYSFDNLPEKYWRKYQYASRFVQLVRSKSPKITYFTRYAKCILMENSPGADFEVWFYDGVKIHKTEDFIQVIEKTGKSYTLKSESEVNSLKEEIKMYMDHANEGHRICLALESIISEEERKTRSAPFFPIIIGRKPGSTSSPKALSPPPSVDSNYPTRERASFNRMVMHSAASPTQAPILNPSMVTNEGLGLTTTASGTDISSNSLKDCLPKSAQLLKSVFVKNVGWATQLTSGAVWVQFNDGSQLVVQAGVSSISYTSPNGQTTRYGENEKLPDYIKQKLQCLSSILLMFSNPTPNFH
Description: as §1, §2

[4] = biological target: T4, MARK2 (Homo sapiens, UniProt Q7KZI7); test: MARK2 (SKIN) Binding Assay
T4 construct: made in house; host or cells: T7 bacteriophage display
T4 sequence (Q7KZI7 whole entry): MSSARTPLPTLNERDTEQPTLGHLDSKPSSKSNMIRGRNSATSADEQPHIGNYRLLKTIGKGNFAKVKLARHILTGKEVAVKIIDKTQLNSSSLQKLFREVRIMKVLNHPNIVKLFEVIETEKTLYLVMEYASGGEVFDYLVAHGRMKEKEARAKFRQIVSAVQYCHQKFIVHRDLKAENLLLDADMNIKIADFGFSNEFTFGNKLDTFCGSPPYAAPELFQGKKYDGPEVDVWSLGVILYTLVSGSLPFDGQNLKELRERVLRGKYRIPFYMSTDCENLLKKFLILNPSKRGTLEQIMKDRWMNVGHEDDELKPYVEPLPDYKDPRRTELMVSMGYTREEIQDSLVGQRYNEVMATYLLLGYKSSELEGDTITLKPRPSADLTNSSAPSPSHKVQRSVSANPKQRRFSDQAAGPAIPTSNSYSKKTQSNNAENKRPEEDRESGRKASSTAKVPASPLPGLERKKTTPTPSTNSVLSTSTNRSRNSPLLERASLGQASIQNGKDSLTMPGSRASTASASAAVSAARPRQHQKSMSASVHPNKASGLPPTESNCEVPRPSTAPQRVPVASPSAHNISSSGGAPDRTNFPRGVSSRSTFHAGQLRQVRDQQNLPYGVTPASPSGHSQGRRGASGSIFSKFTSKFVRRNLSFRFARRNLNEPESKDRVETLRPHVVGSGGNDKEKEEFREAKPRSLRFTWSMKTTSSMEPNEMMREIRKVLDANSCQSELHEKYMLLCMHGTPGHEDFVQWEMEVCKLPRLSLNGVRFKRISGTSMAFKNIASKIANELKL
Description: as §1, §2

T1 sequence (P42684 whole entry): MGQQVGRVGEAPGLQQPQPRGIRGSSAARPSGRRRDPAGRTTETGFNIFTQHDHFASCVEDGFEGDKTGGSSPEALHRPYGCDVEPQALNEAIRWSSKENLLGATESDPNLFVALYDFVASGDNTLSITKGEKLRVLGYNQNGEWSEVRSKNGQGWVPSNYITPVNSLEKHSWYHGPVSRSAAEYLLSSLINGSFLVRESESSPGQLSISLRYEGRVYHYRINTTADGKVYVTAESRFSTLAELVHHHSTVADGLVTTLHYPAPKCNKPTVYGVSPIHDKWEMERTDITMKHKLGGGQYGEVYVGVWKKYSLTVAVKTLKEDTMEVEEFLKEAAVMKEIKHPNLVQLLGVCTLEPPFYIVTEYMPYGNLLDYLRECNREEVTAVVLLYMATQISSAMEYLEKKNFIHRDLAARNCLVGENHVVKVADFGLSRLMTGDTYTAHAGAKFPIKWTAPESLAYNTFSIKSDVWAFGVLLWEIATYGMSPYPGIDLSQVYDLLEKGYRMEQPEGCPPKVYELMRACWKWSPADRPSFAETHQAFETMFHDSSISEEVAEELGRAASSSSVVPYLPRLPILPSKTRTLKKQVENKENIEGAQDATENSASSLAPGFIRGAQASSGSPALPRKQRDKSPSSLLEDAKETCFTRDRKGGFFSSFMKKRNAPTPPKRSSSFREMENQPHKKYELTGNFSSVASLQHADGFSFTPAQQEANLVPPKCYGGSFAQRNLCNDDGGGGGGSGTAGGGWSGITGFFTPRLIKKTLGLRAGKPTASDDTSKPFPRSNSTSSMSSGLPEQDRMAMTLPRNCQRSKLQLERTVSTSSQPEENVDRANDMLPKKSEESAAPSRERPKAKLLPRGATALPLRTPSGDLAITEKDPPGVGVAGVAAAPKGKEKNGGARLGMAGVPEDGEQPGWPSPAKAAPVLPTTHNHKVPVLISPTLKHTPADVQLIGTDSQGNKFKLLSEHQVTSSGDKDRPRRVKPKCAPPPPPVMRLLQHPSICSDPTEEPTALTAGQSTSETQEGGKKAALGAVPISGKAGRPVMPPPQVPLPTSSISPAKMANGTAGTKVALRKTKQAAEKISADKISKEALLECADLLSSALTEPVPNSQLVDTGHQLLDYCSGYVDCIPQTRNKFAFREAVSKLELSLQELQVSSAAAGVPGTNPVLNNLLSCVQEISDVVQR

Oc1ccc(-c2cc3c(Sc4cccc(Cl)c4)ncnc3[nH]2)cc1 [Compound L2]
Kd [1]: 1 to 10 µM | Kd [2]: < 0.1 µM | Kd [3]: > 10 µM | Kd [4]: > 10 µM

Reference: patent US20050165029A1, “Pyrrolopyrimidine derivatives and analogs and their use in the treatment and prevention of diseases” (Ambit Biosciences Corporation, priority 2004, published 2005)
